Experimental data taken from patent publication US20240393292A1, “ALLERGY ANTIGEN AND EPITOPE THEREOF” (HOYU CO., LTD., priority 2019, published 2024).

Test system: IgE antibodies from patients
Experiment: Wheat epitope mapping (2): overlapping 10-amino-acid peptide fragments shifted by one amino acid;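 on Rank of partial sequence as epitope binding to IgE antibody: key = sequence deemed particularly important within the common 15-residue sequence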;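 on epitope sequence binding to IgE antibody, rank (Key/Preferably/More preferably): key of grades: preferably = shorter partial sequence still acting as epitope; more preferably = sequence improving IgE binding; key = particularly important sequence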
Type: binding, human
Protocol: The peptides to be synthesized were shifted by one amino acid.
The library was prepared by the same procedure as described above in (A), and the presence or absence of binding of an IgE antibody present in the serum of a patient to each peptide fragment was measured by the same technique as described above. Numeric values determined from images obtained as a result of carrying out only the procedures (1) and (4) to (6) described above in the subsection titled (3) Spotting of cellulose-bound peptide solution were used as control values. The control value of each peptide was subtracted from numeric values determined from images obtained from results about the serum of patients, and the obtained value of the difference was compared with values of the peptides serving as the basis of overlapping.
Chemiluminescence intensity in images obtained by measurement was converted into a numeric value in the same manner as in (A). Numeric values determined from images obtained as a result of carrying out only the procedures (1) and (4) to (6) described above in the subsection titled (3) Spotting of cellulose-bound peptide solution (secondary antibody measurement values) were used as control values. The control value of each peptide was subtracted from numeric values determined from images obtained from results about the serum of patients. When values obtained using the sequences (SEQ ID NOs: 29, 131, 191, 281, 346, 414, 493, 562, 640, 706, 776, 899, 974, 1010, 1089, 1142, 1166, 1209, 1257, 1297, 1367, 1403, 1508, 1566, 1598, 1608, 1685, 1753, 1789, 1836, 1895, 1977, 2004, 2027, 2068, 2154, 2217, 2265, 2309, 2342, 2419, 2491, 2545, 2613, 2631, 2674, 2701, 2774, 2809 and 2830) serving as the basis of overlapping were defined as 100%, it was determined that: a peptide having a value of the difference that was less than 30% had no binding activity against IgE antibodies; a peptide having a value of the difference that was 30% or more and less than 50% had binding activity, albeit poor, against IgE antibodies; a peptide having a value of the difference that was 50% or more and less than 70% had binding activity, albeit somewhat poor, against IgE antibodies; and a peptide having a value of the difference that was 70% or more had equivalent or good binding activity against IgE antibodies and was thus a peptide had remaining binding activity against IgE antibodies.

[1] = serum of patient P53 (child, general immediate type allergy to wheat), sequence without X
[2] = serum of patient P20 (WDEIA), sequence without X
[3] = serum of patient P34 (WDEIA), sequence without X
[4] = serum of patient P24 (WDEIA), partial sequence
[5] = serum of patient P36 (WDEIA), sequence without X
[6] = serum of patient P32 (WDEIA), sequence without X
[7] = serum of patient P2 (WDEIA), sequence without X

## 2256 (LRGIRN; REGION 1..6: note = epitope) [compound 2256]
[1]
  Epitope sequence binding to IgE antibody, rank of the sequence (Key/Preferably/More preferably): Key

## 1324 (INVEN; REGION 1..5: note = epitope) [compound 1324]
[2]
  Epitope sequence binding to IgE antibody, rank of the sequence: Preferably

## 1487 (YLQPQQPISQ; REGION 1..10: note = epitope) [compound 1487]
Serum of patient P35 (WDEIA), sequence without X
  Rank of partial sequence as epitope binding to IgE antibody: Preferably

## 1948 (QVPLVQQQ; REGION 1..8: note = epitope) [compound 1948]
Serum of patient P24 (WDEIA)
  epitope sequence binding to IgE antibody, rank (Key/Preferably/More preferably): Preferably

## 2293 (ERFE; REGION 1..4: note = epitope) [compound 2293]
[3]
  Epitope sequence binding to IgE antibody, rank of the sequence (Key/Preferably/More preferably): Key

## 1714 (KEAANF; REGION 1..6: note = epitope) [compound 1714]
Serum of patient P35 (WDEIA)
  epitope sequence binding to IgE antibody, rank (Key/Preferably/More preferably): Preferably

## 2563 (QLVQQLCC; REGION 1..8: note = epitope) [compound 2563]
[4]
  Epitope sequence binding to IgE antibody, rank of the sequence: Preferably

## 2243 (RLLRGIRNY; REGION 1..9: note = epitope) [compound 2243]
[5]
  Epitope sequence binding to IgE antibody, rank of the sequence (Key/Preferably/More preferably): Key

## 1207 (FPPQQ; REGION 1..5: note = epitope) [compound 1207]
[3]
  Epitope sequence binding to IgE antibody, rank of the sequence: Key

## 2683 (KGPTL; REGION 1..5: note = epitope) [compound 2683]
Serum of patient P22 (WDEIA), partial sequence
  Epitope sequence binding to IgE antibody, rank of the sequence: Key

## 1647 (YNPD; REGION 1..4: note = epitope) [compound 1647]
[5]
  Rank of partial sequence as epitope binding to IgE antibody: Key

## 2641 (KEAAEM; REGION 1..6: note = epitope) [compound 2641]
Serum of patient P14 (WDEIA), partial sequence
  Epitope sequence binding to IgE antibody, rank of the sequence: Key

## 2269 (LGGIDK; REGION 1..6: note = epitope) [compound 2269]
Serum of patient P7 (WDEIA), sequence without X
  Epitope sequence binding to IgE antibody, rank of the sequence (Key/Preferably/More preferably): Key

## 1340 (NVEN; REGION 1..4: note = epitope) [compound 1340]
[6]
  Epitope sequence binding to IgE antibody, rank of the sequence: Key

## 1756 (VSSYLKK; REGION 1..7: note = epitope) [compound 1756]
Serum of patient P8 (WDEIA)
  epitope sequence binding to IgE antibody, rank (Key/Preferably/More preferably): Key

## 1640 (DKVPFVPISG; REGION 1..10: note = epitope) [compound 1640]
[3]
  Rank of partial sequence as epitope binding to IgE antibody: Key

## 2255 (LLRGIRNYRV; REGION 1..10: note = epitope) [compound 2255]
[1]
  Epitope sequence binding to IgE antibody, rank of the sequence (Key/Preferably/More preferably): Preferably

## 1871 (VRTLQR; REGION 1..6: note = epitope) [compound 1871]
Serum of patient P29 (WDEIA)
  epitope sequence binding to IgE antibody, rank (Key/Preferably/More preferably): Key

## 1442 (YLQPQQPIS; REGION 1..9: note = epitope) [compound 1442]
Serum of patient P18 (WDEIA), sequence without X
  Rank of partial sequence as epitope binding to IgE antibody: Key

## 2388 (RCAYVTEIV; REGION 1..9: note = epitope) [compound 2388]
[6]
  Epitope sequence binding to IgE antibody, rank of the sequence (Key/Preferably/More preferably): Key

## 1370 (QPLPPQQ; REGION 1..7: note = epitope) [compound 1370]
[7]
  Epitope sequence binding to IgE antibody, rank of the sequence (Key/Preferably/More preferably/Further preferably): Key

## 1446 (PQQPISQQQ; REGION 1..9: note = epitope) [compound 1446]
Serum of patient P21 (WDEIA), sequence without X
  Rank of partial sequence as epitope binding to IgE antibody: Preferably

## 2585 (LQQSTYQLVQ; REGION 1..10: note = epitope) [compound 2585]
Serum of patient P32 (WDEIA), partial sequence
  Epitope sequence binding to IgE antibody, rank of the sequence: Preferably

## 1769 (KVGYNP; REGION 1..6: note = epitope) [compound 1769]
Serum of patient P35 (WDEIA)
  epitope sequence binding to IgE antibody, rank (Key/Preferably/More preferably): Key

## 2564 (QLVQQ; REGION 1..5: note = epitope) [compound 2564]
[4]
  Epitope sequence binding to IgE antibody, rank of the sequence: Key

## 1771 (KVGYNP; REGION 1..6: note = epitope) [compound 1771]
Serum of patient P50 (child, general immediate type allergy to wheat)
  epitope sequence binding to IgE antibody, rank (Key/Preferably/More preferably): Key

## 1426 (YLQPQ; REGION 1..5: note = epitope) [compound 1426]
Serum of patient P12 (WDEIA), sequence without X
  Epitope sequence binding to IgE antibody, rank of the sequence: Key

## 1369 (QQPLPPQQ; REGION 1..8: note = epitope) [compound 1369]
[7]
  Epitope sequence binding to IgE antibody, rank of the sequence (Key/Preferably/More preferably/Further preferably): Preferably

## 1417 (QQPISQQQAQ; REGION 1..10: note = epitope) [compound 1417]
Serum of patient P8 (WDEIA), sequence without X
  Epitope sequence binding to IgE antibody, rank of the sequence: Key

## 2244 (RNYRVA; REGION 1..6: note = epitope) [compound 2244]
[5]
  Epitope sequence binding to IgE antibody, rank of the sequence (Key/Preferably/More preferably): Key

## 1635 (YNPD; REGION 1..4: note = epitope) [compound 1635]
[6]
  Rank of partial sequence as epitope binding to IgE antibody: Key

## 1581 (PFPQTQQPQ; REGION 1..9: note = epitope) [compound 1581]
[2]
  Rank of partial sequence as epitope binding to IgE antibody: More preferably

## 2668 (KEAAE; REGION 1..5: note = epitope) [compound 2668]
Serum of patient P57 (child, general immediate type allergy to wheat), partial sequence
  Epitope sequence binding to IgE antibody, rank of the sequence: Preferably

## 1523 (QVPLVQQQQF; REGION 1..10: note = epitope) [compound 1523]
Serum of patient P10 (WDEIA), sequence without X
  Rank of partial sequence as epitope binding to IgE antibody: Further preferably

## 2612 (QLVQQLCC; REGION 1..8: note = epitope) [compound 2612]
Serum of patient G9 (adult, general immediate type allergy to wheat), partial sequence
  Epitope sequence binding to IgE antibody, rank of the sequence: Key

## 2290 (DKRVIERFE; REGION 1..9: note = epitope) [compound 2290]
Serum of patient P33 (WDEIA), sequence without X
  Epitope sequence binding to IgE antibody, rank of the sequence (Key/Preferably/More preferably): Key

## 2292 (KRVIERFEK; REGION 1..9: note = epitope) [compound 2292]
[3]
  Epitope sequence binding to IgE antibody, rank of the sequence (Key/Preferably/More preferably): Preferably

## 1758 (YLKK; REGION 1..4: note = epitope) [compound 1758]
Serum of patient P14 (WDEIA)
  epitope sequence binding to IgE antibody, rank (Key/Preferably/More preferably): Key

## 1336 (NVEN; REGION 1..4: note = epitope) [compound 1336]
Serum of patient P26 (WDEIA), sequence without X
  Epitope sequence binding to IgE antibody, rank of the sequence: Key

## 2548 (QSTY; REGION 1..4: note = epitope) [compound 2548]
Serum of patient P2 (WDEIA), partial sequence
  Epitope sequence binding to IgE antibody, rank of the sequence: Key

## 1833 (KFLKN; REGION 1..5: note = epitope) [compound 1833]
Serum of patient G7 (adult, general immediate type allergy to wheat)
  epitope sequence binding to IgE antibody, rank (Key/Preferably/More preferably): Key

## 1500 (YLQPQQPIS; REGION 1..9: note = epitope) [compound 1500]
Serum of patient G7 (adult, general immediate type allergy to wheat), sequence without X
  Rank of partial sequence as epitope binding to IgE antibody: Preferably

## 1693 (KEAANFTS; REGION 1..8: note = epitope) [compound 1693]
Serum of patient P19 (WDEIA), sequence without X
  Rank of partial sequence as epitope binding to IgE antibody: Preferably

## 1168 (PGQQQQFPPQ; REGION 1..10: note = epitope) [compound 1168]
Serum of patient P3 (WDEIA), sequence without X
  Epitope sequence binding to IgE antibody, rank of the sequence: Preferably

## 1864 (TVRTLQR; REGION 1..7: note = epitope) [compound 1864]
Serum of patient P25 (WDEIA)
  epitope sequence binding to IgE antibody, rank (Key/Preferably/More preferably): Key

## 1737 (KEAANFT; REGION 1..7: note = epitope) [compound 1737]
Serum of patient P57 (child, general immediate type allergy to wheat)
  epitope sequence binding to IgE antibody, rank (Key/Preferably/More preferably): Preferably
